Source: paper PMC8217170, “Phase Ib dose-escalation study of the hypoxia-modifier Myo-inositol trispyrophosphate in patients with hepatopancreatobiliary tumors” (Nature Communications, 2021)
Where “and” joins values, the source holds several entries; their conditions need not be identical. Equal entries are not always repeated.

Tests used:
[1] = in vivo
[2] = set-up: method as in unpublished data obtained from NormOxys; conditions: minipigs, once weekly; ref unpublished data obtained from NormOxys; cited from earlier work
[3] = set-up: method as in NormOxys phase I clinical trial; conditions: ref NormOxys phase I clinical trial, cited from earlier work
[4] = tested on: target lesions of PDAC, CRLM, CCA and HCC; test: Morphological radiological response, MRI, RECIST 1.1; type: in vivo, human; set-up: key to RECIST1.1 response after ITPP / RECIST1.1 response after chemotherapy / RespITPP_Recist / RespChemo_Recist: CR = complete response; PR = partial response; SD = stable disease; PD = progressive disease; Lesion1_pre_DM / Lesion1_post_DM / Lesion1_chemo_DM / Lesion2_pre_DM / Lesion2_post_DM / Lesion2_chemo_DM / Lesion3_pre_DM / Lesion3_post_DM / Lesion3_chemo_DM / Lesion4_pre_DM / Lesion4_post_DM / Lesion4_chemo_DM / Lesion5_pre_DM / Lesion5_post_DM / Lesion5_chemo_DM: unit not given here; conditions: for RECIST1.1 response after chemotherapy: chemotherapy subsequent to ITPP; for RespITPP_Recist / RespChemo_Recist: RECIST
Method: Radiological assessment, consisting of abdominal MRI and FDG-PET-CT, was performed before ITPP administration and after the 3-week treatment course. Where possible, radiological re-evaluation was performed after 3–6 cycles of chemotherapy. Radiological responses were evaluated according to the RECIST 1.1 criteria[56] for MRI and EORTC criteria[57] for FDG-PET-CT imaging.
Then first calculate the sum of diameters (DM) and SUV-activities of radiological target lesions before ITPP (sum_pre), after ITPP (sum_post) and after subsequent chemotherapy (sum_chemo) for assessment of morphological RECIST1.1 (diameter) and metabolical EORTC (SUV activiy) responses.
Patient 1 (dropout after only 2 infusions and subsequent death due to rapid oncological progression) is excluded for radiological assessment due to no follow up imaging available.
In a second step, we calculate percent changes (PC) of diameter and SUV activity between before ITPP, after ITPP and after chemotherapy.

EGF = test: Serum angiogenesis marker, multiplex bead-based immunoassay (LEGENDplex); type: in vivo, human; set-up: EGF: unit not given here; conditions: for EGF: serum, duplicate wells
CEA, AFP, CA19-9 = test: Circulatory tumor-specific markers before vs after ITPP; type: in vivo, human; conditions: for Tumor marker AFP / Tumor marker CEA: individual patients
Text: Load the raw data of the tumor marker measurements, calculate fold changes (FC) and percentage changes comparing measurments per patient before and after ITPP treatment.

[5] = after ITPP monotherapy, 27 patients assessed
[6] = after chemotherapy subsequent to ITPP, 20 patients
[7] = of 22 patients with elevated markers, under ITPP

O=P1(O)OC2C3OP(=O)(O)OP(=O)(O)OC3C3OP(=O)(O)OP(=O)(O)OC3C2OP(=O)(O)O1 (centres unmarked) [ITPP, Myo-inositol trispyrophosphate]
Time of peak plasma levels (Cmax) after infusion start ([1]; human): 6 h
ITPP baseline levels at infusion start (Cmin) [1]: below the detection threshold
Human equivalent dose-corrected NOAEL [2]: 43,750 mg/m2
Subjects with treatment-emerged adverse effects (TEAEs) ([3]; ITPP-treated group, 750 to 5600 mg/m2, intravenous infusion during 4 h): 9/24
Dose well tolerated in unaffected volunteers [3]: 5600 mg/m2
Serious adverse effects or deaths associated with TEAEs [3]: No serious adverse effects (SAEs) or deaths
Median change in target lesion size, RECIST ([4]; CCA, after ITPP): 0.88%
Median change in target lesion size, RECIST ([4]; CCA, after chemotherapy): −18.18%
Median change in target lesion size, RECIST ([4]; CRLM, after ITPP): 6.67%
Median change in target lesion size, RECIST ([4]; CRLM, after chemotherapy): −3.12%
Median change in target lesion size, RECIST ([4]; HCC, after ITPP): 0.81%
Median change in target lesion size, RECIST ([4]; HCC, after chemotherapy): −30.46%
Share of patients with SD (morphological disease stabilization) ([4]; ITPP monotherapy): 52%
Median change in target lesion size, RECIST ([4]; PDAC, after ITPP): 12.16%
Median change in target lesion size, RECIST ([4]; PDAC, after chemotherapy): 0%
Patients with progression (PD), RECIST1.1 [4, 5]: 11
Patients with stable disease (SD), RECIST1.1 [4, 5]: 14
Patients with PD, RECIST [4, 6]: 6
Patients with SD, RECIST [4, 6]: 12
Patients with partial response (PR), RECIST [4, 6]: 2
Share of patients with PR ([4]; after subsequent chemotherapy): 10%
Share of patients with SD ([4]; after subsequent chemotherapy): 60%
RECIST1.1 response after ITPP ([4]; individual patients, cohort 1 (1866 mg/m2)): PD and SD
RECIST1.1 response after chemotherapy ([4]; individual patients, cohort 1, 1866 mg/m2): SD
RECIST1.1 response after ITPP ([4]; individual patients, cohort 2 (3732 mg/m2)): SD and PD
RECIST1.1 response after chemotherapy ([4]; individual patients, cohort 2, 3732 mg/m2): SD
RECIST1.1 response after ITPP ([4]; individual patients, cohort 3 (5600 mg/m2)): PD and SD
RECIST1.1 response after chemotherapy ([4]; individual patients, cohort 3, 5600 mg/m2): PD and SD
RECIST1.1 response after ITPP ([4]; individual patients, cohort 4 (7000 mg/m2)): PD and SD
RECIST1.1 response after chemotherapy ([4]; individual patients, cohort 4, 7000 mg/m2): PR
RECIST1.1 response after ITPP ([4]; individual patients, cohort 5 (8750 mg/m2)): SD and PD
RECIST1.1 response after chemotherapy ([4]; individual patients, cohort 5, 8750 mg/m2): PD
RECIST1.1 response after ITPP ([4]; individual patients, cohort 6 (10500 mg/m2)): PD and SD
RECIST1.1 response after chemotherapy ([4]; individual patients, cohort 6, 10500 mg/m2): PD and PR and SD
RECIST1.1 response after ITPP ([4]; individual patients, cohort 7 (12390 mg/m2)): PD and SD
RECIST1.1 response after chemotherapy ([4]; individual patients, cohort 7, 12390 mg/m2): SD
RECIST1.1 response after ITPP ([4]; individual patients, cohort 8 (14500 mg/m2)): PD and SD
RECIST1.1 response after chemotherapy ([4]; individual patients, cohort 8, 14500 mg/m2): PD and SD
Lesion1_chemo_DM ([4]; individual patients, lesion 1, after subsequent chemotherapy): 131 and 16 and 90 and 54 and 20 and 33 and 23 and 19 and 28 and 67 and 69 and 42 and 31.4 and 10 and 36
Lesion1_post_DM ([4]; individual patients, lesion 1, post ITPP): 113 and 27 and 110 and 305 and 107 and 74 and 26 and 50 and 49 and 25 and 20 and 30 and 70 and 58 and 81 and 43 and 44.6 and 33 and 17 and 12 and 42 and 164
Lesion1_pre_DM ([4]; individual patients, lesion 1, pre ITPP (baseline)): 114 and 27 and 111 and 293 and 106 and 73 and 22 and 26 and 48 and 43 and 49 and 17 and 20 and 21 and 24 and 71 and 50 and 82 and 59 and 43.7 and 32 and 13 and 10 and 38 and 163
Lesion2_chemo_DM ([4]; individual patients, lesion 2, after subsequent chemotherapy): 13 and 23 and 41 and 24 and 25 and 32 and 16 and 12 and 62 and 14 and 47 and 28.9 and 10 and 30 and 40
Lesion2_post_DM ([4]; individual patients, lesion 2, post ITPP): 18 and 26 and 56 and 15 and 17 and 58 and 21 and 25 and 12 and 28 and 14 and 49 and 42 and 39.6 and 16 and 31 and 50 and 13
Lesion2_pre_DM ([4]; individual patients, lesion 2, pre ITPP (baseline)): 17 and 57 and 83 and 13 and 15 and 53 and 26 and 10 and 104 and 24 and 14 and 41 and 25 and 29.7 and 16 and 46
Lesion3_chemo_DM ([4]; individual patients, lesion 3, after subsequent chemotherapy): 39 and 16 and 10 and 9 and 24 and 7 and 32.6 and 8 and 28
Lesion3_post_DM ([4]; individual patients, lesion 3, post ITPP): 32 and 23 and 21 and 10 and 26 and 16 and 45.1 and 30 and 14
Lesion3_pre_DM ([4]; individual patients, lesion 3, pre ITPP (baseline)): 30 and 18 and 20 and 10 and 13 and 66 and 26.6 and 31 and 12
Lesion4_chemo_DM ([4]; individual patients, lesion 4, after subsequent chemotherapy): 21 and 7 and 10 and 12 and 34
Lesion4_post_DM ([4]; individual patients, lesion 4, post ITPP): 17 and 23 and 10 and 15 and 44
Lesion4_pre_DM ([4]; individual patients, lesion 4, pre ITPP (baseline)): 21 and 20 and 10 and 22 and 14 and 38
Lesion5_chemo_DM ([4]; individual patients, lesion 5, after subsequent chemotherapy): 10 and 18 and 9 and 11
Lesion5_post_DM ([4]; individual patients, lesion 5, post ITPP): 16 and 18 and 12
Lesion5_pre_DM ([4]; individual patients, lesion 5, pre ITPP (baseline)): 21 and 15 and 13 and 11 and 14
RespITPP_Recist ([4]; individual patients, morphological response after ITPP monotherapy): PD and SD
RespChemo_Recist ([4]; individual patients, morphological response after subsequent chemotherapy following ITPP): PD and SD and PR
NewLesion_ITPP ([4]; individual patients, new lesion after ITPP monotherapy (Yes/No)): Yes and No
NewLesion_Chemo ([4]; individual patients, new lesion after subsequent chemotherapy following ITPP (Yes/No)): Yes and No
RespITPP_Recist ([4]; response after ITPP, per individual patient, cohort c1, tumor c2): PD and SD
RespChemo_Recist ([4]; response after chemotherapy following ITPP, per individual patient, cohort c1, tumor c2): PD and SD and PR
Share of patients with reduced EGF (EGF; following ITPP treatment, 27 patients): 85.2%
EGF (EGF; Patient 25, Cohort 8, PDAC, Day 3 post): 16.25
EGF (EGF; Patient 25, Cohort 8, PDAC, Day 9 post): 11.62 and 15.2
EGF (EGF; Patient 26, Cohort 8, PDAC, Day 3 post): 14.41 and 12.95
EGF (EGF; Patient 26, Cohort 8, PDAC, Day 9 post): 9.76 and 9.88
EGF (EGF; Patient 27, Cohort 8, CCC, Day 3 post): 5.57 and 4.9
EGF (EGF; Patient 27, Cohort 8, CCC, Day 9 post): 9.82 and 10.17
EGF (EGF; Patient 28, Cohort 8, CRLM, Day 3 post): 2.39 and 3.39
EGF (EGF; Patient 28, Cohort 8, CRLM, Day 9 post): 3.09 and 2.24
Patients with tumor markers not elevated (CEA, AFP, CA19-9; CEA, AFP, CA19-9): 5/27
Tumor marker AFP (CEA, AFP, CA19-9; Day 1 pre (baseline before ITPP)): 1572 µg/L and 11.2 µg/L and 270600 µg/L
Tumor marker CEA (CEA, AFP, CA19-9; Day 1 pre (baseline before ITPP), ITPP cohort 2): 2.8 µg/L
Tumor marker CEA (CEA, AFP, CA19-9; Day 1 pre (baseline before ITPP), ITPP cohort 3): 169.8 µg/L
Tumor marker CEA (CEA, AFP, CA19-9; Day 1 pre (baseline before ITPP), ITPP cohort 6): 3.2 µg/L and 1 µg/L and 291.6 µg/L
Tumor marker CEA (CEA, AFP, CA19-9; Day 1 pre (baseline before ITPP), ITPP cohort 7): 2205 µg/L and 2068 µg/L
Tumor marker CEA (CEA, AFP, CA19-9; Day 1 pre (baseline before ITPP), ITPP cohort 8): 7058 µg/L
Tumor marker AFP (CEA, AFP, CA19-9; Day 3 post): 1167 µg/L and 11.2 µg/L
Tumor marker CEA (CEA, AFP, CA19-9; Day 3 post, ITPP cohort 2): 2.9 µg/L
Tumor marker CEA (CEA, AFP, CA19-9; Day 3 post, ITPP cohort 3): 165.1 µg/L
Tumor marker CEA (CEA, AFP, CA19-9; Day 3 post, ITPP cohort 6): 3.2 µg/L and 2.3 µg/L and 300.1 µg/L
Tumor marker CEA (CEA, AFP, CA19-9; Day 3 post, ITPP cohort 7): 2190 µg/L and 2209 µg/L
Tumor marker CEA (CEA, AFP, CA19-9; Day 3 post, ITPP cohort 8): 7145 µg/L
Tumor marker AFP (CEA, AFP, CA19-9; Day 9 post): 1017 µg/L and 5.1 µg/L and 204800 µg/L
Tumor marker CEA (CEA, AFP, CA19-9; Day 9 post, ITPP cohort 2): 2.9 µg/L
Tumor marker CEA (CEA, AFP, CA19-9; Day 9 post, ITPP cohort 3): 247.8 µg/L
Tumor marker CEA (CEA, AFP, CA19-9; Day 9 post, ITPP cohort 6): 4.6 µg/L and 1 µg/L and 451 µg/L
Tumor marker CEA (CEA, AFP, CA19-9; Day 9 post, ITPP cohort 7): 2055 µg/L and 3058 µg/L
Tumor marker CEA (CEA, AFP, CA19-9; Day 9 post, ITPP cohort 8): 7626 µg/L
Patients with a decrease in tumor marker levels (CEA, AFP, CA19-9; [7]): 11
Patients with an increase in tumor marker levels (CEA, AFP, CA19-9; [7]): 11
